test system: TK.6 lymphoblasts; test: TK.6 micronucleus assay; format: cell-based; conditions: not given
Procedure: The safety/toxicology profiles of a compound or salt of the present disclosure was evaluated via a series of in vitro genotoxicity assays, including the SOS-chromotest to determine bacterial genotoxicity, and the TK.6 micronucleus assay to determine chromosomal damage and forward mutations. Standard reactive oxygen species (ROS) and caspase 3/7 assay were conducted to determine general cellular toxicity. Moreover, a series of sensitization tests were conducted to predict any potential skin sensitivity. These include the direct peptide reactivity assay to evaluate haptenization, the KeratinoSens reporter assay to determine potential sensitivity via the activation of a cytoprotective pathway, and an immunological assay using human immature monocyte-derived dendritic cells to evaluate any potential immunogenicity.
TK.6 lymphoblasts are a well-studied cell line commonly used for gene mutation analyses. They are heterozygous for the thymidine kinase gene (TK) and enable the detection of forward mutations and chromosomal damage, which manifests as micronuclei and are detectable via flow cytometry.
TK.6 cells were dosed with the example compounds or a vehicle control (0.1% v/v DMSO) and cultured with or without S9 metabolic activation for 24 hr. […] Methyl methanesulfonate, a known genotoxic, alkylating agent was used as a positive control for micronuclei detection.
The micronucleus assay was also performed to determine if the compounds are genotoxic by evaluating the presence of micronuclei. […] In combination. […] I-17 elicited genotoxicity at >3.125 μg/mL.

| Compound | micronuclei formation / genotoxic effect in TK.6 cells |
| --- | --- |
| COc1ccc(CCCc2nc3ccccc3[nH]2)cc1 [VII-14, 1H-Benzimidazole, 2-[3-(4-methoxyphenyl)propyl]-] | do not promote any micronuclei formation |

test system: human hair follicle dermal papilla cells (hFDPC); test: Human follicle dermal papilla cells (hFDPC) proliferation assay; format: cell-based; conditions: hFDPCs supplemented with BIO, BMP-2 and FGFβ
Source text: In Table 8, A represents less than 20% of increased proliferation of hFDPCs, B represents 20-40%, and C represents larger than 40% of increased proliferation of hFDPCs.

| Compound | Percent Increase Proliferation of hFDPCs (%) |
| --- | --- |
| CN1C(=O)NC(=O)/C(=C/c2cnc(N(C)C)nc2)C1=O [I-13, 2,4,6(1H,3H,5H)-Pyrimidinetrione, 5-[[2-(dimethylamino)-5-pyrimidinyl]methylene]-1-methyl-] | A (A represents less than 20% of increased proliferation of hFDPCs) |
| Oc1c2c(c(O)n1C1CCCCC1)CC=CC2 [VII-13, 1H-Isoindole-1,3(2H)-dione, 2-cyclohexyl-3a,4,7,7a-tetrahydro-] | A (A represents less than 20% of increased proliferation of hFDPCs) |
| CCC(C)Cc1c(C)sc2[nH]c(SCc3cc(=O)oc4cc(O)ccc34)nc(=O)c12 (centres unmarked) [IV-4, Thieno[2,3-d] pyrimidin-4(1H)-one, 2-[[(7-hydroxy-2-oxo-2H-1-benzopyran-4-yl)methyl]thio]-6-methyl-5-(2-methylbutyl)-] | A (A represents less than 20% of increased proliferation of hFDPCs) |
| COc1ccc(CC(=O)Nc2sc3c(c2C(=O)Nc2cccc([N+](=O)[O-])c2)CCC(C)C3)cc1 (centres unmarked) [VII-22, Benzo[b]thiophene-3-carboxamide, 4,5,6,7-tetrahydro-2-[[2-(4-methoxyphenyl)acetyl]amino]-6-methyl-N-(3-nitrophenyl)-] | A (A represents less than 20% of increased proliferation of hFDPCs) |
| O=C1CNCc2[nH]c3ccccc3c2N1c1ccccc1 [VII-10, 1,4-Diazepino[6,5-b] indol-2(1H)-one, 3,4,5,6-tetrahydro-1-phenyl-] | B (B represents 20-40%) |
| Cc1ccc(S(=O)(=O)N2CCC(C(=O)N3CCN(Cc4nc5ccccc5s4)CC3)CC2)cc1 [VI-4, Methanone, [4-(2-benzothiazolylmethyl)-1-piperazinyl][1-[(4-methylphenyl)sulfonyl]-4-piperidinyl]-] | A (A represents less than 20% of increased proliferation of hFDPCs) |
| COc1ccc(CCCc2nc3ccccc3[nH]2)cc1 [VII-14, 1H-Benzimidazole, 2-[3-(4-methoxyphenyl)propyl]-] | A (A represents less than 20% of increased proliferation of hFDPCs) |
| Cc1ccc(-c2nc3ncccc3o2)cc1NC(=S)NC(=O)c1ccc(C(C)(C)C)cc1 [VII-24, Benzamide, 4-(1,1-dimethylethyl)-N-[[(2-methyl-5-oxazolo[4,5-b]pyridin-2-ylphenyl)amino]thioxomethyl]-] | A (A represents less than 20% of increased proliferation of hFDPCs) |
| Cc1cc(C)cc(N2Cc3ccccc3C2)c1 [VII-12, 1H-Isoindole, 2-(3,5-dimethylphenyl)-2,3-dihydro-] | A (A represents less than 20% of increased proliferation of hFDPCs) |
| CCOC(=O)c1cnn(-c2cccc(NC(=O)C3CCN(c4ncccn4)CC3)c2)c1C [VII-8, 1H-Pyrazole-4-carboxylic acid, 5-methyl-1-[3-[[[1-(2-pyrimidinyl)-4-piperidinyl]carbonyl]amino]phenyl]-, ethyl ester] | A (A represents less than 20% of increased proliferation of hFDPCs) |
| Cc1ccc(-c2nnc(N3CCN(S(C)(=O)=O)CC3)c3ccccc23)cc1 [II-3, Phthalazine, 1-(4-methylphenyl)-4-[4-(methylsulfonyl)-1-piperazinyl]-] | B (B represents 20-40%) |
| C=CCc1cc(/C=C2\C(=O)NC(=O)N(c3cc(C)cc(C)c3)C2=O)cc(OC)c1O [I-3, 2,4,6(1H,3H,5H)-Pyrimidinetrione, 1-(3,5-dimethylphenyl)-5-[[4-hydroxy-3-methoxy-5-(2-propen-1-yl)phenyl]methylene]-] | A (A represents less than 20% of increased proliferation of hFDPCs) |
| COc1ccccc1-n1c(SCc2cc(=O)oc3cc(O)ccc23)nc2ccccc2c1=O [IV-3, 4(3H)-Quinazolinone, 2-[[(7-hydroxy-2-oxo-2H-1-benzopyran-4-yl)methyl]thio]-3-(2-methoxyphenyl)-] | B (B represents 20-40%) |
| Cc1cccc(Cn2cnc(NC(=O)c3cc(-c4cccnc4)nc4ccc(C)cc34)n2)c1 [III-2, 4-Quinolinecarboxamide, 6-methyl-N-[1-[(3-methylphenyl)methyl]-1H-1,2,4-triazol-3-yl]-2-(3-pyridinyl)-] | A (A represents less than 20% of increased proliferation of hFDPCs) |
| C=CCN1C(=O)NC(=O)/C(=C\c2ccc(OC)cc2OC)C1=O [I-6, 2,4,6(1H,3H,5H)-Pyrimidinetrione, 5-[(2,4-dimethoxyphenyl)methylene]-1-(2-propen-1-yl)-] | A (A represents less than 20% of increased proliferation of hFDPCs) |
| COc1ccc(N(CC(=O)N2CCN(c3ccccc3OC)CC2)S(=O)(=O)c2ccccc2)cc1 [VII-16, Benzenesulfonamide, N-(4-methoxyphenyl)-N-[2-[4-(2-methoxyphenyl)-1-piperazinyl]-2-oxoethyl]-] | A (A represents less than 20% of increased proliferation of hFDPCs) |
| CCOC(=O)c1cnn(-c2ccc(C(=O)Nc3ccc(S(=O)(=O)CC)cc3)cc2)c1C [VII-7, 1H-Pyrazole-4-carboxylic acid, 1-[4-[[[4-(ethylsulfonyl)phenyl]amino]carbonyl]phenyl]-5-methyl-, ethyl ester] | B (B represents 20-40%) |
| CC12C=CC(=O)C=C1CCC1C2C(O)CC2(C)C1CC[C@]2(O)C(=O)COC(=O)CCC(=O)O (stereo partly drawn) [VII-19, Pregna-1,4-diene-3, 20-dione, 21-(3-carboxy-1-oxopropoxy)-11,17-dihydroxy-, (11β)-] | A (A represents less than 20% of increased proliferation of hFDPCs) |
| Cc1ccc(-c2cc(C(=O)NNC(=O)NC34CC5CC(CC(C5)C3)C4)c3ccccc3n2)c(C)c1 [III-5, 4-Quinolinecarboxylic acid, 2-(2,4-dimethylphenyl)-, 2-[(tricyclo[3.3.1.1^3,7]dec-1-ylamino)carbonyl]hydrazide] | A (A represents less than 20% of increased proliferation of hFDPCs) |
| COc1ccc(S(=O)(=O)Nc2ccc(S(=O)(=O)NCCc3ccccc3)cc2)cc1 [VI-5, Benzenesulfonamide, 4-methoxy-N-[4-[[(2-phenylethyl)amino]sulfonyl]phenyl]-] | A (A represents less than 20% of increased proliferation of hFDPCs) |
| CSc1nnc(SCc2cc(=O)oc3cc(O)ccc23)s1 [IV-2, 2H-1-Benzopyran-2-one, 7-hydroxy-4-[[[5-(methylthio)-1,3,4-thiadiazol-2-yl]thio]methyl]-] | A (A represents less than 20% of increased proliferation of hFDPCs) |
| O=C1Nc2ccccc2SC1CC(=O)N1CCN(C(c2ccccc2)c2ccccc2)CC1 (centres unmarked) [VII-17, 2H-1,4-Benzothiazin-3(4H)-one, 2-[2-[4-(diphenylmethyl)-1-piperazinyl]-2-oxoethyl]-] | A (A represents less than 20% of increased proliferation of hFDPCs) |
| NC(=O)c1ccc(NC(=O)CCCc2nc(-c3ccccc3)no2)cc1 [VII-5, 1,2,4-Oxadiazole-5-butanamide, N-[4-(aminocarbonyl)phenyl]-3-phenyl-] | A (A represents less than 20% of increased proliferation of hFDPCs) |
| O=C(C1CCN(S(=O)(=O)c2ccccc2)CC1)N1CCN(Cc2ccc3c(c2)OCO3)CC1 [VI-1, Methanone, [4-(1,3-benzodioxol-5-ylmethyl)-1-piperazinyl][1-(phenylsulfonyl)-4-piperidinyl]-] | A (A represents less than 20% of increased proliferation of hFDPCs) |
| CC(C)(C)Nc1nnc(SCc2cc(=O)oc3cc(O)ccc23)s1 [IV-1, 2H-1-Benzopyran-2-one, 4-[[[5-[(1,1-dimethylethyl)amino]-1,3,4-thiadiazol-2-yl]thio]methyl]-7-hydroxy-] | B (B represents 20-40%) |
| Cc1ccc(Cn2ncc3c(N4CCCC4)ncnc32)cc1 [V-1, 1H-Pyrazolo[3,4-d] pyrimidine, 1-[(4-methylphenyl)methyl]-4-(1-pyrrolidinyl)-] | A (A represents less than 20% of increased proliferation of hFDPCs) |
| CCS(=O)(=O)N1CCN(c2ncnc3cc[nH]c23)CC1 [V-4, 5H-Pyrrolo[3,2-d] pyrimidine, 4-[4-(ethylsulfonyl)-1-piperazinyl]-] | A (A represents less than 20% of increased proliferation of hFDPCs) |

test system: HepG2 cells; test: Caspase 3/7 activity in HepG2 cells; format: cell-based; conditions: HepG2, >2-log concentration range, versus % v/v-matched DMSO
Procedure: (§1) Cells were treated with either the example compounds or vehicle control containing correspondingly % v/v-matched amounts of DMSO spanning a >2-log concentration range. Data represents mean±s.d. and representative of at least 2 experimental replicates.
as §1, with “HepG2 cells are an immortalized liver cell line commonly used to study apoptosis induced by small molecules. Cells” for “Cells”

| Compound | Normalized caspase 3/7 activity |
| --- | --- |
| COc1ccc(CCCc2nc3ccccc3[nH]2)cc1 [VII-14, 1H-Benzimidazole, 2-[3-(4-methoxyphenyl)propyl]-] | did not exhibit any caspase activation |
